Consider seven compounds from patent US20040002117A1 (priority 1998, published 2004).

pIC50, pKi: −log10 of the molar value.

In assay [1] the target is T1, recombinant human calcineurin catalytic domain, calcineurin(2-347) (Homo sapiens, UniProt Q08209, L343A/M347D/Y341S).
T1 construct: GST (N, cleaved yes); made in house; host or cells: E. coli strain DH5α
The experiment in a line: fluorescence polarization competition assay, displacement of OG-VIVIT from calcineurin. In kind it is binding. To be noted: for displacement of OG-VIVIT from calcineurin: at high concentrations, 1 μM calcineurin, 60 nM OG-VIVIT; for pIC50: calcineurin-VIVIT peptide interaction, read-out: Estimated IC50. On the procedure: Samples were analyzed as described in the preceding paragraph, and the resulting polarization data were plotted against the concentration of unlabelled VIVIT peptide, as shown in FIG. 8B.
The library stocks were dissolved at a nominal concentration of 10 mM in DMSO, and formatted for convenient robotic transfer on 384-well plates at the Institute of Chemistry and Cell Biology, Harvard Medical School. To initiate the competition assay, 40 nl volumes were pin-transferred from each well of a library stock plate to the corresponding wells of an assay plate, utilizing a robotic device. After a minimum 10 min incubation at room temperature to allow the binding to reach equilibrium, fluorescence polarization data were collected employing an Analyst plate reader (Molecular Devices).
Stocks of candidate inhibitor compounds and their structural analogues were purchased from ChemBridge or Asinex. The structure and purity of individual compounds were verified by ^1H NMR, mass spectrometry, or thin-layer chromatography. […] INCA1, INCA2, and INCA6 can be represented generally as follows: […]

Assay [2] deals with calcineurin (Homo sapiens, UniProt Q08209, L343A/M347D/Y341S). The experiment in a line: 1H NMR titration spectroscopy binding experiments. The conditions noted are these: 10 μM compound, 20 μM calcineurin, 25° C., buffered D2O. On the procedure:
T2-filtered ^1H NMR spectra were obtained on a Bruker Avance 600 instrument with CryoPhobe using low-power presaturation of residual water. Preacquisition delays included up to five spin echos to suppress fast-relaxing broad protein resonances and were times to yield in-phase signals for J-coupled spins. Chemical shifts were referenced to internal standard 5 μM 2,2-dimethylsilapentane-5-sulfonic acid (DSS).

In assay [3] the target is T2, dephosphorylation of NFAT by calcineurin (Homo sapiens, UniProt Q08209). Briefly: in vitro dephosphorylation of NFAT1 in C1.7W2 T cell lysates by recombinant calcineurin. The format is biochemical. To be noted: 500 nM calcineurin, 600 nM calmodulin, 30 minutes at 30° C.; INCA2 at micromolar concentrations.
Description: Dephosphorylation produces a change in mobility that is visible as a shift in the immunostained NFAT band.
Cell lysates were made from C1.7W2 T cells washed in PBS/2 mM EGTA, 10 mM iodoacetamide, collected by centrifugation, and resuspended at 80×10^6 cells/ml in chilled lysis buffer consisting of 10 mM KAc, 2 mM MgAc2, 2 mM EGTA, 100 mM HEPES/NaHEPES pH 7.4, 0.2% NP-40, 10 mM iodoacetamide, 2 mM PMSF, 20 μg/ml aprotinin, and 50 μM leupeptin. After incubation for 10 minutes on wet ice, the nuclei and cell debris were pelleted in a refrigerated microcentrifuge at 4° C. by centrifugation for 5 minutes at 13,500 rpm, and the resulting supernatant recovered with a prechilled pipette tip, rapidly frozen using a dry ice/ethanol bath, and stored at −80° C.
The dephosphorylation reaction was initiated by addition of 0.6 μl lysate per 20 μl reaction.
In assay [4] the target is T3, calcineurin (Homo sapiens, UniProt Q08209). Briefly: calcineurin phosphatase assay with phosphorylated RII peptide, Malachite green detection. The conditions noted are these: 100 μM INCA compound or 100 μM VIVIT peptide; 6.8 nM calcineurin, 15 min at 25° C. The format is biochemical.
Assay [5] has as its target T4, dephosphorylation of NFAT1 by calcineurin (Homo sapiens, UniProt Q08209). The experiment in a line: in vitro dephosphorylation of NFAT1(1-460)-GFP by calcineurin in HeLa cytosolic extracts, Western blotting. In kind it is biochemical. On the procedure:
Samples were resolved by SDS-PAGE and dephosphorylation was assessed with anti-HA antibody 12CA5. […] Slightly higher concentrations of the peptides were required to inhibit the in vitro dephosphorylation than were required to inhibit NFAT-calcineurin binding, presumably due to some degradation of the peptides by enzymes present in the cell extracts.
In general terms: A western blot detects proteins with antibodies after separation by electrophoresis.

Assay [6] addresses T3, calcineurin. The experiment in a line: dephosphorylation of 32P-RII phosphopeptide by calcineurin. The format is biochemical. To be noted: 32P-RII phosphopeptide 100 μM, calcineurin 100 nM; peptides 30 μM to 400 μM; FK506/FKBP12 10 μM/10 μM. On the procedure: The dephosphorylation reaction was allowed to proceed for 30 min at 30° C. after which the reaction was stopped by addition of excess 0.1% trichloroacetic acid, substrate peptide was removed by adsorption onto a cation exchange resin (AG50W; BioRad Laboratories, Hercules, Calif.), and released ^32P label in the supernatant was measured in a liquid scintillation counter.

Assay [7] addresses T4, dephosphorylation of NFAT1 by calcineurin. The experiment in a line: dephosphorylation of HA-NFAT1(1-460)-GFP in HEK-293 cytosolic extracts by calcineurin/calmodulin. In kind it is biochemical. The conditions noted are these: wild type 13-mer 100 μM or 400 μM; mutant 400 μM; calcineurin/calmodulin 100 nM to 900 nM. On the procedure:
(§1) The HA-tagged N-terminal domains of NFAT1 and NFAT4 were expressed as the fusion proteins HA-NFAT1(1-460)-GFP and HA-NFAT4(1-407)-GFP in HEK-293 cells. […] Dephosphorylation was allowed to proceed for 30 min at 30° C., and samples were analyzed by SDS-PAGE and Western blotting with anti-HA antibody.

For assay [8], the target named is dephosphorylation of NFAT4 by calcineurin (Homo sapiens, UniProt Q08209). The experiment in a line: dephosphorylation of HA-NFAT4(1-407)-GFP in HEK-293 cytosolic extracts by calcineurin/calmodulin. In kind it is biochemical. The conditions noted are these: wild type 13-mer 100 μM or 400 μM; mutant 400 μM; calcineurin/calmodulin 100 nM to 900 nM. On the procedure: as §1

The target in assay [9] is calcineurin binding to GST-NFAT1 (Homo sapiens, UniProt Q08209). Briefly: binding of activated calcineurin to GST-NFAT1(1-415), glutathione-Sepharose collection and Western blotting.
Assay [10] addresses T2, dephosphorylation of NFAT by calcineurin. Briefly: calcineurin-mediated dephosphorylation of HA-NFAT1(1-460)-GFP in HeLa cell lysates. The format is biochemical. The conditions noted are these: 200 nM calcineurin, 600 nM calmodulin, 30 min at 30 C.; peptide amounts as in FIG. 5B.
Description: The phosphorylation status of NFAT was evaluated by SDS-polyacrylamide gel electrophoresis and Western blotting with anti-HA antibody 12CA5.
The test system of assay [11] is NFAT-dependent reporter gene (3×NFAT-Luc) in Jurkat cells. Briefly: 3×NFAT-Luc luciferase reporter in transfected Jurkat cells. In kind it is cell-based, human. To be noted: GFP fusion expressed in Jurkat cells; PMA and ionomycin 6 hours. For orientation: Reporter assays use an easily measured gene product as a stand-in for the process of interest.
Description: Twenty-four hours after transfection, cells were left unstimulated, stimulated for 6 hours with 20 nM phorbol 12-myristate 13-acetate (PMA) and 1 μM ionomycin, or stimulated for 6 hours with 0.2 μg/ml immobilized anti-CD3 (HIT3a, Pharmingen) and 0.5 μg/ml soluble anti-CD28 (CD28.2, Pharmingen). CsA was added 30 min before the stimuli. Luciferase activity in cell lysates was measured using a luciferase assay system (Promega) and was normalized to the concentration of hGH in the cell culture medium determined with a radioimmunometric assay kit (Hybritech).
In the right panel are data from Jurkat cells that had been cotransfected with a 3×NFAT-Luc reporter plasmid and with expression plasmids encoding murine NFAT1, human NFAT2, or human NFAT4 as indicated. Twenty-four hours after transfection, cells were left unstimulated (Unstimulated; open bars) or were stimulated for 6 hours with PMA and ionomycin (PMA+iono; solid bars), cell lysates were prepared, and luciferase activity attributable to endogenous NFAT (Endog.) or to overexpressed NFAT proteins was measured.
Twenty-four hours after transfection, cells were left untreated (open bars) or were stimulated for 6 hours with PMA and ionomycin (solid bars).
Assay [12] has as its target T3, calcineurin. Briefly: in vitro dephosphorylation of recombinant 32P-labelled RIIα protein by calcineurin. The format is biochemical.
Description: Dephosphorylation was allowed to proceed during 45 min at 30° C., samples were resolved by SDS-PAGE, and the gel was stained with Coomasie Brilliant Blue, dried, and autoradiographed. A phosphorimager was used to quantitate the level of ^32P in each lane.
The target in assay [13] is T3, calcineurin. Briefly: dephosphorylation of GST-Tau protein by calcineurin. The format is biochemical.
Assay [14] has as its target calcineurin binding to NFAT1 (Homo sapiens, UniProt Q08209). The experiment in a line: 125I-calcineurin binding to GST-NFAT1(1-400) immobilized on glutathione-Sepharose beads. To be noted: at concentrations up to 100 μM.
[15] abbreviates: peptide concentrations in the range from 16 μM to 400 μM, calcineurin 200 nM, calmodulin 600 nM, 30 min at 30° C.

For `O=C1C(Cl)=C(Cl)C(=NS(=O)(=O)c2ccccc2)c2ccccc21` [INCA2], in [1], the negative logarithm of the Ki (pKi) (commonly −log10 of the Ki, conventionally taken in molar units) was 6.30 to 7.00; the “displacement of OG-VIVIT from calcineurin” value was “complete”; the negative-log IC50 (pIC50) (usually the negative decadic logarithm of the IC50, by convention in mol/L) is 5.52. On calcineurin [2], the “binding to calcineurin in the absence of VIVIT peptide” value is “direct molecular interaction”. In addition, the “dephosphorylation of NFAT by calcineurin in vitro” value in assay [3] is listed as “blocked”. In addition, the “release of free phosphate from RII phosphopeptide” value on calcineurin [4] is “not affected”.
For the compound `CC[C@H](C)[C@H](NC(=O)[C@H](CCCNC(=N)N)NC(=O)[C@@H]1CCCN1C(=O)[C@H](CO)NC(=O)[C@@H]1CCCN1C(=O)CNC(=O)[C@@H](N)CO)C(=O)N[C@@H](CCC(=O)O)C(=O)N[C@H](C(=O)N[C@H](C(=O)N1CCC[C@H]1C(=O)N[C@@H](CO)C(=O)N[C@@H](Cc1c[nH]cn1)C(=O)O)[C@@H](C)O)[C@@H](C)CC` [wild type 13-mer peptide], the “inhibition of dephosphorylation of NFAT1 by calcineurin in vitro” value (shortened to “inhibition … by calcineurin in vitro”) in assay [5] (setting [15]) was “inhibited”. Also, on calcineurin [6], the “inhibition of dephosphorylation of the RII peptide by calcineurin” value is reported as “Neither of the SPRIEITPS peptides inhibited”. Moreover, in assay [7], the “inhibition of dephosphorylation of HA-NFAT1(1-460)-GFP” value was “inhibited dephosphorylation”. In addition, the “inhibition of dephosphorylation of HA-NFAT4(1-407)-GFP” value in assay [8] is recorded as “inhibited dephosphorylation”. Also, the “inhibition of the binding of activated calcineurin to GST-NFAT1” value in assay [9] (200 nM calcineurin, 600 nM calmodulin, 2 mM CaCl2, peptide amounts as in FIG. 5A) is recorded as “inhibited”. Besides, the “inhibition of NFAT dephosphorylation” value in [10] is given as “effective”.
With “GFP-SPRIEIT: GFP-SPRIEIT fusion protein, expression vector previously described (Aramburu et al 1998)”, the “block of induced luciferase expression, endogenous NFAT” value in assay [11] is listed as “partially blocked”.
As for `CC[C@H](C)[C@H](NC(=O)[C@H](CCCNC(=N)N)NC(=O)[C@@H]1CCCN1C(=O)[C@H](CO)NC(=O)[C@@H]1CCCN1C(=O)CNC(=O)[C@H](CO)NC(=O)[C@H](C)NC(=O)CNC(=O)[C@H](C)NC(=O)[C@@H]1CCCN1C(=O)[C@@H](N)CCCCN)C(=O)N[C@@H](CCC(=O)O)C(=O)N[C@H](C(=O)N[C@H](C(=O)N1CCC[C@H]1C(=O)N[C@@H](CO)C(=O)N[C@@H](Cc1c[nH]cn1)C(=O)N[C@@H](CCC(=O)O)C(=O)N[C@@H](CC(C)C)C(=O)N[C@@H](CCSC)C(=O)N[C@@H](CCC(N)=O)C(=O)N[C@@H](C)C(=O)NCC(=O)NCC(=O)N[C@@H](Cc1ccc(O)cc1)C(=O)O)[C@@H](C)O)[C@@H](C)CC` [wild type 26-mer peptide], the “inhibition of dephosphorylation of NFAT1” value in assay [5] (500 μM peptide) was “fully inhibited”. The “inhibition … by calcineurin in vitro” value in assay [5] (setting [15]) is “inhibited”. Moreover, at calcineurin [6], the “inhibition of dephosphorylation of the RII peptide by calcineurin” value is recorded as “Neither of the SPRIEITPS peptides inhibited”. For the same compound, the “inhibition of dephosphorylation of RIIα protein” value on calcineurin [12] (peptide 20 μM and 100 μM, calcineurin 200 nM, 45 min at 30° C.) is on record as “did not inhibit”. The inhibition (usually how much of the control response was suppressed) at 500 µM was 18% at calcineurin [12] (peptide 500 μM) and 10% on calcineurin [13] (read-out: inhibition of dephosphorylation of GST-Tau protein by calcineurin, peptide 500 μM). In addition, on calcineurin [13] (peptide 20 μM and 100 μM, calcineurin 200 nM, 90 min at 30° C.), the “inhibition of dephosphorylation of GST-Tau protein by calcineurin” value is listed as “not inhibited”.
In the case of “CM2 mutant 26-mer peptide: 26-mer control peptide with R112 to A, E114 to A, T116 to A substitutions and appended tyrosine (KPAGASGPSPAIAIAPSHELMQAGGY) [reference compound]”, the “inhibition of the NFAT1-calcineurin interaction” value in assay [14] was “did not inhibit”. The “inhibition … by calcineurin in vitro” value in assay [5] (only at concentrations above 400 μM) is on record as “only marginally inhibitory”. Also, the “inhibition of dephosphorylation of HA-NFAT1(1-460)-GFP” value in assay [7] was “little or no inhibition”. In [8], the “inhibition of dephosphorylation of HA-NFAT4(1-407)-GFP” value is reported as “little or no inhibition”. For the same compound, in assay [9] (peptide 100 μM), the “inhibition of calcineurin binding to GST-NFAT1” value was “did not inhibit”.
On to `O=P([O-])([O-])OP(=O)([O-])[O-].[Na+].[Na+].[Na+].[Na+]` [sodium pyrophosphate, reference compound], for which, at calcineurin [12] (sodium pyrophosphate 20 mM, CsA/cyclophilin […] μM/5 μM, FK506/FKBP12 4 μM/4 μM), the “inhibition of dephosphorylation of RIIα protein by control inhibitors” value is reported as “efficiently inhibited”. Further, the “inhibition of dephosphorylation of GST-Tau protein by control inhibitors” value on calcineurin [13] (sodium pyrophosphate 10 mM, CsA/cyclophilin […] μM/5 μM) is “efficiently inhibited”. In addition, in assay [3], the “dephosphorylation of NFAT by calcineurin in vitro” value is “no dephosphorylation”.
For the compound `CC(=O)C(C(C)=O)C1=C(Cl)C(=O)C(=O)c2c(C(=O)c3ccccc3)coc21` [INCA1], in assay [1], the pKi was 5.70 to 6.30, the “displacement of OG-VIVIT from calcineurin” value is listed as “complete” and the negative-log IC50 (pIC50) was 6.00. Moreover, at calcineurin [2], the “binding to calcineurin in the absence of VIVIT peptide” value was “direct molecular interaction”.
